Laboratory results as given in PubChem BioAssay (NCI).
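Interpolation was linear, between the two tested concentrations surrounding the appropriate level; five concentrations were tested over 48 hours in 96-well plates. At the TGI there is no net growth.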

Tests used:
Experiment in all cases: NCI anticancer screen, dose series, 48 h
IGROV1 ovarian = tested on: IGROV1 ovarian
LOX IMVI melanoma = tested on: LOX IMVI melanoma
EKVX NSCLC = tested on: EKVX NSCLC
COLO 205 colon = tested on: COLO 205 colon
NCI-H23 lung = tested on: NCI-H23 lung
A549 NSCLC = tested on: A549 NSCLC
U251 CNS = tested on: U251 CNS
MCF7 breast = tested on: MCF7 breast
SN12C renal = tested on: SN12C renal
CCRF-CEM leukemia = tested on: CCRF-CEM leukemia
CAKI-1 renal = tested on: CAKI-1 renal
HCC-2998 colon = tested on: HCC-2998 colon
RPMI-8226 leukemia = tested on: RPMI-8226 leukemia
HCT-15 colon = tested on: HCT-15 colon
K-562 leukemia = tested on: K-562 leukemia
OVCAR-3 ovarian = tested on: OVCAR-3 ovarian
DU-145 prostate = tested on: DU-145 prostate
MDA-MB-231 breast = tested on: MDA-MB-231 breast
786-0 renal = tested on: 786-0 renal

CCCSCC(P(=O)(O)O)P(=O)(O)O
TGI (IGROV1 ovarian): > 100 µM
TGI (LOX IMVI melanoma): > 100 µM
TGI (EKVX NSCLC): > 100 µM
TGI (COLO 205 colon): > 100 µM
TGI (NCI-H23 lung): > 100 µM
TGI (A549 NSCLC): > 100 µM
TGI (U251 CNS): > 100 µM
TGI (MCF7 breast): > 100 µM
TGI (SN12C renal): > 100 µM
TGI (CCRF-CEM leukemia): > 100 µM
TGI (CAKI-1 renal): > 100 µM
TGI (HCC-2998 colon): > 100 µM
TGI (RPMI-8226 leukemia): > 100 µM
TGI (HCT-15 colon): > 100 µM
TGI (K-562 leukemia): > 100 µM
TGI (OVCAR-3 ovarian): > 86.9 µM

COc1cc(NS(C)(=O)=O)ccc1Nc1cc(C)[nH]c2ccc3nccc3c12
TGI (IGROV1 ovarian): > 100 µM
TGI (LOX IMVI melanoma): > 100 µM
TGI (EKVX NSCLC): > 100 µM
TGI (COLO 205 colon): > 100 µM
TGI (NCI-H23 lung): > 100 µM
TGI (DU-145 prostate): > 100 µM
TGI (A549 NSCLC): > 100 µM
TGI (U251 CNS): > 100 µM
TGI (MCF7 breast): > 100 µM
TGI (SN12C renal): > 100 µM
TGI (CAKI-1 renal): > 100 µM
TGI (RPMI-8226 leukemia): > 100 µM
TGI (HCT-15 colon): > 100 µM
TGI (MDA-MB-231 breast): > 100 µM
TGI (786-0 renal): > 100 µM
TGI (K-562 leukemia): > 100 µM
TGI (OVCAR-3 ovarian): > 100 µM

COc1cc(/C=C/C(=O)CC(=O)/C=C/c2ccc(OC(=O)CCCCC3CCSS3)c(OC)c2)ccc1OC(=O)CCCCC1CCSS1 (configuration not stated)
TGI (IGROV1 ovarian): > 100 µM
TGI (LOX IMVI melanoma): > 100 µM
TGI (EKVX NSCLC): > 100 µM
TGI (COLO 205 colon): > 100 µM
TGI (NCI-H23 lung): > 100 µM
TGI (DU-145 prostate): > 100 µM
TGI (A549 NSCLC): > 100 µM
TGI (U251 CNS): > 100 µM
TGI (MCF7 breast): > 100 µM
TGI (SN12C renal): > 100 µM
TGI (CCRF-CEM leukemia): > 100 µM
TGI (RPMI-8226 leukemia): > 100 µM
TGI (HCT-15 colon): > 100 µM
TGI (MDA-MB-231 breast): > 100 µM
TGI (786-0 renal): > 100 µM
TGI (K-562 leukemia): > 100 µM
TGI (OVCAR-3 ovarian): > 100 µM

O=C1c2ccccc2-c2c1c(-c1ccc(F)cc1)nc1ccc3ccccc3c21
TGI (LOX IMVI melanoma): > 100 µM
TGI (EKVX NSCLC): > 100 µM
TGI (COLO 205 colon): > 100 µM
TGI (NCI-H23 lung): > 100 µM
TGI (DU-145 prostate): > 100 µM
TGI (A549 NSCLC): > 100 µM
TGI (U251 CNS): > 100 µM
TGI (MCF7 breast): > 100 µM
TGI (SN12C renal): > 100 µM
TGI (CCRF-CEM leukemia): > 100 µM
TGI (CAKI-1 renal): > 100 µM
TGI (HCC-2998 colon): > 100 µM
TGI (RPMI-8226 leukemia): > 100 µM
TGI (HCT-15 colon): > 100 µM
TGI (MDA-MB-231 breast): > 100 µM
TGI (786-0 renal): > 100 µM
TGI (K-562 leukemia): > 100 µM
TGI (OVCAR-3 ovarian): > 100 µM

c1c[nH]c(-c2ccc(-c3ccc[nH]3)c3nsnc23)c1
TGI (IGROV1 ovarian): > 100 µM
TGI (LOX IMVI melanoma): > 100 µM
TGI (EKVX NSCLC): > 58.4 µM
TGI (COLO 205 colon): > 65.9 µM
TGI (NCI-H23 lung): 79.6 µM
TGI (DU-145 prostate): 98.3 µM
TGI (A549 NSCLC): > 70 µM
TGI (U251 CNS): > 66.5 µM
TGI (MCF7 breast): > 100 µM
TGI (SN12C renal): > 100 µM
TGI (CCRF-CEM leukemia): > 35.3 µM
TGI (CAKI-1 renal): > 100 µM
TGI (HCC-2998 colon): > 100 µM
TGI (RPMI-8226 leukemia): > 52.6 µM
TGI (HCT-15 colon): > 76.8 µM
TGI (MDA-MB-231 breast): > 84.8 µM
TGI (786-0 renal): > 67.6 µM
TGI (K-562 leukemia): > 49.1 µM
TGI (OVCAR-3 ovarian): 95.4 µM
